Assay results reported in patent publication US7186861B2 (priority 2002, dated 2007).

Tested on: Plasmopara viticola
Test: Activity against downy mildew of grapes caused by Plasmopara viticola (lasting effect, inoculation 7 days after spraying)
Format: in vivo
Details: 63 ppm active compound; potted vines Müller-Thurgau; inoculated 7 days after spraying; untreated plants 90% infected
Method: The active compounds were prepared, separately or together, as a 10% emulsion in a mixture of 70% by weight of cyclohexanone, 20% by weight of Nekanil® LN (Lutensol® AP6, wetting agent with an emulsifying and dispersing action based on ethoxylated alkylphenols) and 10% by weight of Wettol® EM (nonionic emulsifier based on ethoxylated castor oil) and were appropriately diluted with water to the desired concentration.
Leaves of potted vines of the variety “Müller-Thurgau” were sprayed to runoff point with an aqueous preparation of active compound prepared from a stock solution consisting of 10% of active compound, 85% of cyclohexanone and 5% of emulsifier. In order to be able to assess the lasting effects of the substances, the plants, after the spray coating had dried on, were placed in a greenhouse for 7 days. Only then were the leaves inoculated with an aqueous suspension of zoospores of Plasmopara viticola. The vines were then initially placed in a chamber saturated with water vapor at 24° C. for 48 hours and subsequently in a greenhouse at temperatures of between 20 and 30° C. for 5 days. After this period of time, the plants were once more placed in a humid chamber for 16 hours to accelerate the eruption of sporangiphores. The extent to which the infection had developed on the undersides of the leaves was then determined visually.

## CCC=C(C(=O)NCCc1ccc(OCC)c(OC)c1)c1ccc(Cl)c(Cl)c1 [Compound I-44]
  infection: 3%

## CC/C=C(/C(=O)NCCc1ccc(OCC)c(OC)c1)c1ccc(Cl)c(Cl)c1 [compound A]
  infection: 40%
